Data set [1] concerns the target Cytochrome P450 2C9 (Homo sapiens, UniProt P11712). The data set can be described thus: Inhibition of CYP2C9 in human liver microsomes using diclofenac as substrate preincubated for 10 mins followed by substrate addition measured for 30 mins by LC-MS analysis. In kind it is ADME, Microsome. (In general: Liver microsomes are vesicles of endoplasmic reticulum, rich in cytochrome P450 enzymes.)

Data set [2] can be described thus: Plasma protein binding in dog at 2 uM incubated for 1 hr by LC/MS analysis. In kind it is ADME, cell-free, Canis lupus familiaris. As to conditions: read-out: PPB (converted).
Data set [3] concerns the target Poly [ADP-ribose] polymerase 2 (Homo sapiens, UniProt Q9UGN5). Description: Inhibition of PARP2 (unknown origin).
In data set [4] the target is Protein mono-ADP-ribosyltransferase PARP14 (Homo sapiens, UniProt Q460N5). Description: Inhibition of PARP14 (unknown origin).
Data set [5] concerns the target Cytochrome P450 3A4 (Homo sapiens, UniProt P08684). The data set can be described thus: Inhibition of CYP3A4 in human liver microsomes using midazolam as substrate preincubated for 10 mins followed by substrate addition measured for 30 mins by LC-MS analysis. The class given is ADME, Microsome.
For data set [6], the target named is Cytochrome P450 2D6 (Homo sapiens, UniProt P10635). The data set can be described thus: Inhibition of CYP2D6 in human liver microsomes using dextromethorphan as substrate preincubated for 10 mins followed by substrate addition measured for 30 mins by LC-MS analysis. In kind it is ADME, Microsome.
Data set [7] can be described thus: Passive permeability in MDCKII-MDR1 cells incubated for 2 hrs by LC-MS analysis. In kind it is ADME, cell-based, Canis lupus familiaris. As to conditions: dog, MDCK-MDR1, read-out: permeability.
Data set [8] can be described thus: Plasma protein binding in monkey at 2 uM incubated for 1 hr by LC/MS analysis. The class given is ADME, cell-free, Macaca mulatta. Conditions: rhesus monkey, read-out: PPB (converted).
The nature of data set [9]: Cmax in fasted ICR mouse at 10 mg/kg, po measured for 24 hrs by LC-MS analysis. The class given is ADME, organism-based. As to conditions: in vivo.
In data set [10] the target is Voltage-gated inwardly rectifying potassium channel KCNH2 (Homo sapiens, UniProt Q12809). Description: Inhibition of hERG transfected in HEK293 cells at <10 uM by electrography. The class given is toxicity, cell-based. Conditions: hek293, 10 µM. For orientation: hERG is a cardiac potassium channel; its block is linked to QT prolongation.
A short description of data set [11]: Metabolic stability in dog liver microsomes assessed as intrinsic clearance preincubated for 5 mins followed by NADPH addition measured for 1 hr by LC-MS analysis. In kind it is ADME, Canis lupus familiaris, Microsome. As to conditions: time 65 min, read-out: CLH.
A short description of data set [12]: Kinetic solubility of compound at pH 6.5. In kind it is physicochemical. As to conditions: buffer, read-out: Kinetic_solubility.
Data set [13] relates to NCI-H1373. Description: Antiproliferative activity against human NCI-H1373 cells assessed as inhibition of cell viability incubated for 4 days by luminescence based assay. Conditions: NCI-H1373, 96 h.
Data set [14] in a line: Half life in fasted ICR mouse at 10 mg/kg, po measured for 24 hrs by LC-MS analysis. The class given is ADME, organism-based. As to conditions: in vivo.
Data set [15] is described as follows: AUC in fasted ICR mouse at 10 mg/kg, po measured for 24 hrs by LC-MS analysis. In kind it is ADME, organism-based. Conditions: in vivo.
Data set [16] in a line: Metabolic stability in mouse liver microsomes assessed as intrinsic clearance preincubated for 5 mins followed by NADPH addition measured for 1 hr by LC-MS analysis. Conditions: time 65 min, read-out: CLH. The class given is ADME, Microsome.
Data set [17] deals with T1, Protein mono-ADP-ribosyltransferase TIPARP (Homo sapiens, UniProt Q7Z3E1).
T1 sequence (Q7Z3E1 whole entry): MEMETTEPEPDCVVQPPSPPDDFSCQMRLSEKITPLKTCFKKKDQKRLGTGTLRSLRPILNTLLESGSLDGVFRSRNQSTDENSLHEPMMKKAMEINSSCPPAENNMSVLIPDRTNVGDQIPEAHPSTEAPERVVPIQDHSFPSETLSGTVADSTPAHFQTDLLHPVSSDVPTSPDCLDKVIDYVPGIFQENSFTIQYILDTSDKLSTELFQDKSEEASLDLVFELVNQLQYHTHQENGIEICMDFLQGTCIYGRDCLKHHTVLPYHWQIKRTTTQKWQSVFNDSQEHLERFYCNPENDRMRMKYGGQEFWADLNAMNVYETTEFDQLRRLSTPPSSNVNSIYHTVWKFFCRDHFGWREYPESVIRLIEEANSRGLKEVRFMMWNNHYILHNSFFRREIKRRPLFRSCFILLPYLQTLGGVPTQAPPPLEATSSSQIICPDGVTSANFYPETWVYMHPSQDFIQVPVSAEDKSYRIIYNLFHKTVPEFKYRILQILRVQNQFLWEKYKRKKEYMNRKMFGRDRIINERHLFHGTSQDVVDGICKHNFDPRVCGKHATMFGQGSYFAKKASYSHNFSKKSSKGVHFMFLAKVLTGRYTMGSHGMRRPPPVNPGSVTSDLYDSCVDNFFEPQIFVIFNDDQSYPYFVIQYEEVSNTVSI
The data set can be described thus: Inhibition of PARP7 (unknown origin) using histone as substrate incubated for 1 hr by chemiluminescence assay.

Data set [18] can be described thus: Plasma protein binding in rat at 2 uM incubated for 1 hr by LC/MS analysis. The class given is ADME, cell-free. As to conditions: read-out: PPB (converted).
The subject of data set [19] is MDA-MB-436. The data set can be described thus: Antiproliferative activity against human MDA-MB-436 cells assessed as inhibition of cell viability at 0.1 uM incubated for 7 days by luminescence based assay. In kind it is functional. Conditions: time 7.0 day.
The target of data set [20] is T2, Protein mono-ADP-ribosyltransferase PARP11 (Homo sapiens, UniProt Q9NR21).
T2 sequence (Q9NR21 whole entry): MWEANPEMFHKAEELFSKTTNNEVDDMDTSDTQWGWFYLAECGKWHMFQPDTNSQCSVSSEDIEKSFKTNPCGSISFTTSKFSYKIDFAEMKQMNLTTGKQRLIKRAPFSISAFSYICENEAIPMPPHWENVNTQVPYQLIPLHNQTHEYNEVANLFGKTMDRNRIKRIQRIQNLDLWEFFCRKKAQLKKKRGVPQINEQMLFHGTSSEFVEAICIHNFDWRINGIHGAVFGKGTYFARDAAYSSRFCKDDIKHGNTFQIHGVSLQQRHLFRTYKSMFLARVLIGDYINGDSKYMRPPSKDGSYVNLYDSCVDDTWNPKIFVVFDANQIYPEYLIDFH
The data set can be described thus: Inhibition of PARP11 (unknown origin).

Data set [21] in a line: Half life in fasted ICR mouse at 2 mg/kg, iv measured for 24 hrs by LC-MS analysis. The class given is ADME, organism-based. As to conditions: in vivo.
The nature of data set [22]: Kinetic solubility of compound at pH 7.4. Conditions: buffer, read-out: Kinetic_solubility. In kind it is physicochemical.

Structures are written as SMILES. ≈ marks a conversion by molar mass, not a printed value. Calls of active or inactive are those of the source.

Cytochrome P450 3A4, sequence (P08684 whole entry): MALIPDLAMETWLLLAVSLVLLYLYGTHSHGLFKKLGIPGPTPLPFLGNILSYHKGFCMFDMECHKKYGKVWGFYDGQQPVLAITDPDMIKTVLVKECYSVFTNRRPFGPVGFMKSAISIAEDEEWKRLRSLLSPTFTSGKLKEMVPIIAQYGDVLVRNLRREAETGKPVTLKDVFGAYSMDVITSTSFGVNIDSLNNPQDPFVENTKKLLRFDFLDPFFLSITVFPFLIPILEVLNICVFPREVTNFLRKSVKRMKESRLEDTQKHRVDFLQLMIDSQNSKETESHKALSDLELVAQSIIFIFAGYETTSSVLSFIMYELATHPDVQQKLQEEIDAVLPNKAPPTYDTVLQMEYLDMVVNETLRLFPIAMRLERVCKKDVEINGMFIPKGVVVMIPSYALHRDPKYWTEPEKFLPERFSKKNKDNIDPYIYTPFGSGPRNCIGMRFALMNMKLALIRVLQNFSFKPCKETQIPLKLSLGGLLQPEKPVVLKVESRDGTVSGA
Protein mono-ADP-ribosyltransferase PARP14, sequence (Q460N5 whole entry): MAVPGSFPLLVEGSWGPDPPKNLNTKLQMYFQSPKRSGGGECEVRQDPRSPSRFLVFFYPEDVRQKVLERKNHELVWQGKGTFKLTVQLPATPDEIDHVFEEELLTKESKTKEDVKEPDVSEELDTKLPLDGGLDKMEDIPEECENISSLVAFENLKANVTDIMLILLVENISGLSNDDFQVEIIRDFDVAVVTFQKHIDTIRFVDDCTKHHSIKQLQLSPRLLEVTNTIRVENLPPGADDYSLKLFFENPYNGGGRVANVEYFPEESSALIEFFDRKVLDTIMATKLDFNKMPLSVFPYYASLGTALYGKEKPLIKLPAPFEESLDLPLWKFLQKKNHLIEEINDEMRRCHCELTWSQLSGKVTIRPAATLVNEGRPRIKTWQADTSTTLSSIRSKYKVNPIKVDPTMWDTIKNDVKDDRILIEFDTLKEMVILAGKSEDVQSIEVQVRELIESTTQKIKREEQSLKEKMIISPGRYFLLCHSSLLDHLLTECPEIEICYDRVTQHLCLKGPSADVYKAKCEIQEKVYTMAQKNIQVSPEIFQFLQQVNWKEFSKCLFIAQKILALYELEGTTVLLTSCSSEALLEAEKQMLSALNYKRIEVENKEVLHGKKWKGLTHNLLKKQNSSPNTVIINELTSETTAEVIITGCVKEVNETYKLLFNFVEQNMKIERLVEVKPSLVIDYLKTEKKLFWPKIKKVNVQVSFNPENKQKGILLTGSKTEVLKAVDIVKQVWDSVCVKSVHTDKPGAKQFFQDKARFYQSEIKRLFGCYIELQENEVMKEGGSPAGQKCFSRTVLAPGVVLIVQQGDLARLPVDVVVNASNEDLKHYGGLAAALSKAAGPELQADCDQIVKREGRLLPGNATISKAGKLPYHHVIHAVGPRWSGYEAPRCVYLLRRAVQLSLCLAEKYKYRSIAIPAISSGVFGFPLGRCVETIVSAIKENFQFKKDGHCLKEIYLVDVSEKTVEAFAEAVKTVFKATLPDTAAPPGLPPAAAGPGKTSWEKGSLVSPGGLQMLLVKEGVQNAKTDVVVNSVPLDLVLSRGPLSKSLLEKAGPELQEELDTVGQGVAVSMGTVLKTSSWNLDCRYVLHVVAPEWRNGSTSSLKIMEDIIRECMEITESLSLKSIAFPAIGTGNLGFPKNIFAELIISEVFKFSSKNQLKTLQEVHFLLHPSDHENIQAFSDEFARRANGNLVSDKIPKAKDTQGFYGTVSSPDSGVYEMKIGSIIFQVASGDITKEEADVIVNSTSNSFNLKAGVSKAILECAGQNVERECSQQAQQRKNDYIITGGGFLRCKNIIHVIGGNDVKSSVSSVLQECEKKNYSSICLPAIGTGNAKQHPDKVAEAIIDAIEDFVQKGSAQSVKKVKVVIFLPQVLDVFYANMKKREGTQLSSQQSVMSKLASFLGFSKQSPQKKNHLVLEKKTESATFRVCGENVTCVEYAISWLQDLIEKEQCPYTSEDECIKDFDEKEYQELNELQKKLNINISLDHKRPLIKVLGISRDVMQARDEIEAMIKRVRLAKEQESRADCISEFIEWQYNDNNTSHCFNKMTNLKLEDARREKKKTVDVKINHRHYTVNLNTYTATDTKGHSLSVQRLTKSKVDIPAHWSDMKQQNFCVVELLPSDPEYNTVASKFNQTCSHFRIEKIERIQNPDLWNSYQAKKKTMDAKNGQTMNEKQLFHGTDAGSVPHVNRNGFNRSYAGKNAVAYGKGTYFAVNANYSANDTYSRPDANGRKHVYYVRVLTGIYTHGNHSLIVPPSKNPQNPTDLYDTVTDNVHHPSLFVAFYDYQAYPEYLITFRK
Cytochrome P450 2C9, sequence (P11712 whole entry): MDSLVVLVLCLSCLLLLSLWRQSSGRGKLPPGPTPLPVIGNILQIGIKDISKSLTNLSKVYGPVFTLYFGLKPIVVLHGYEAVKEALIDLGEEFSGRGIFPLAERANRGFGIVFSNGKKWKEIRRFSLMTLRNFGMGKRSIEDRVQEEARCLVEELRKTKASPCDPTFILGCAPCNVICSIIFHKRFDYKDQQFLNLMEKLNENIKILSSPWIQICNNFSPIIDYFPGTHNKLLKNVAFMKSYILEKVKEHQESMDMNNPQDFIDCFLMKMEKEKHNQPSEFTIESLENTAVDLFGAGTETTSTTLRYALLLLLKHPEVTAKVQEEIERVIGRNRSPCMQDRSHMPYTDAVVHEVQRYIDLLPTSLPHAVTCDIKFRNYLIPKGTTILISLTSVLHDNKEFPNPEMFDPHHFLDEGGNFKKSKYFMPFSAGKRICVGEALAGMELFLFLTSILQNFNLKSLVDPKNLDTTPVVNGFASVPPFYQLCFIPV
Cytochrome P450 2D6, sequence (P10635 whole entry): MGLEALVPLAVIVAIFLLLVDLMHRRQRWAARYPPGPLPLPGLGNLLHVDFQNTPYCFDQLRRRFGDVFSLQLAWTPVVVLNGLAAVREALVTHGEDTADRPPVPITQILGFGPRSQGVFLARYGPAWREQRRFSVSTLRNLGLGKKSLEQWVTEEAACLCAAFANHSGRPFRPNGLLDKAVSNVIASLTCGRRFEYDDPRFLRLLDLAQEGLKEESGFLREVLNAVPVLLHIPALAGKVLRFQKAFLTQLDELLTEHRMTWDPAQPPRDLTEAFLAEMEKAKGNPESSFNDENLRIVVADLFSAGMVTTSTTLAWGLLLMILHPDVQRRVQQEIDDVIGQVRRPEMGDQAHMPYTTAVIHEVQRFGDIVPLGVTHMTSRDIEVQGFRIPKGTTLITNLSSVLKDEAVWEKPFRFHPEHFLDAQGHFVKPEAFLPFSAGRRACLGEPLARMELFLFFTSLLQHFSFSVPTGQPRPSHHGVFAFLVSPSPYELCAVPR
Voltage-gated inwardly rectifying potassium channel KCNH2, sequence (Q12809 whole entry): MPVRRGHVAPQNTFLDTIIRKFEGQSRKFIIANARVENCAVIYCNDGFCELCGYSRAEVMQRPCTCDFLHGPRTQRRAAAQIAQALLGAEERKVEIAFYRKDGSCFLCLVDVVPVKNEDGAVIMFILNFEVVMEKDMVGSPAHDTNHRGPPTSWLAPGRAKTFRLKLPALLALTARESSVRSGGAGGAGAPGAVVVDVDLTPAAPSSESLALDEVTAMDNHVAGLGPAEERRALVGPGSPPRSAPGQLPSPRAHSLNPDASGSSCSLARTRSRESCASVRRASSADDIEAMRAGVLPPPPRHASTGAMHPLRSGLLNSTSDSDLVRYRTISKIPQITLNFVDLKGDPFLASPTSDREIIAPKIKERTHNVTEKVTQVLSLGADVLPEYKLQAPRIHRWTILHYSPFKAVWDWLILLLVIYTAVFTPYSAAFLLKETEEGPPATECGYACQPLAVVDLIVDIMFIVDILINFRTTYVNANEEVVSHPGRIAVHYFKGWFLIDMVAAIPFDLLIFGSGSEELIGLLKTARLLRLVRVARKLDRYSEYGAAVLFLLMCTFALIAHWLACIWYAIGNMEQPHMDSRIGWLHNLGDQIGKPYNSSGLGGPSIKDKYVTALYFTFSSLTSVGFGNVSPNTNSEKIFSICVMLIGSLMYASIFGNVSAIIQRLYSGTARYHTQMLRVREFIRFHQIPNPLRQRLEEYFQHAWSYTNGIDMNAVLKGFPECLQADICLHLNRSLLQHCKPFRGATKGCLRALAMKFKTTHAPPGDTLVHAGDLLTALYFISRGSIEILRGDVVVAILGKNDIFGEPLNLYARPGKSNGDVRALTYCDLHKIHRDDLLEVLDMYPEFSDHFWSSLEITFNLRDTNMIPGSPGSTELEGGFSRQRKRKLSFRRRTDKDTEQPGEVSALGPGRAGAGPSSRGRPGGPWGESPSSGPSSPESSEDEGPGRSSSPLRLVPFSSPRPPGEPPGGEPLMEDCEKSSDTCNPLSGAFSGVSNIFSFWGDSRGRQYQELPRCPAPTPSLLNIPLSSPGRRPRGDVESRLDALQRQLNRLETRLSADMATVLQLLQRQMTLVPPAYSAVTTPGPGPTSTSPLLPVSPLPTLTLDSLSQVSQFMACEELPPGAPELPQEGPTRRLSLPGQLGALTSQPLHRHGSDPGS
Poly [ADP-ribose] polymerase 2, sequence (Q9UGN5 whole entry): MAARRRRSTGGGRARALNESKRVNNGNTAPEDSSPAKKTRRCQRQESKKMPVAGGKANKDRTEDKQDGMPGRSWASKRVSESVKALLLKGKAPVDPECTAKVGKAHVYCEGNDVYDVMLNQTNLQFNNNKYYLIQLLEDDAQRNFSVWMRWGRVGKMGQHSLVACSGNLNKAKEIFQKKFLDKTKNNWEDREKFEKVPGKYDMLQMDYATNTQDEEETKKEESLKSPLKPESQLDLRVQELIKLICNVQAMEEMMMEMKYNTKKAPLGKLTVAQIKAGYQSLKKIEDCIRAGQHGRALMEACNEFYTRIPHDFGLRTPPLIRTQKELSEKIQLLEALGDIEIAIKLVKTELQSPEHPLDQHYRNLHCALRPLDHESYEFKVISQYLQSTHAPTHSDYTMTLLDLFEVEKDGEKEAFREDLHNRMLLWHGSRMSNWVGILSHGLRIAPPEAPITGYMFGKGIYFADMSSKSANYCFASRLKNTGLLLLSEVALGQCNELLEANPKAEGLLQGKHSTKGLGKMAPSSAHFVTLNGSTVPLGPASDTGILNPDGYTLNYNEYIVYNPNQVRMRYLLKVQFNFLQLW

One may read the IC50 as the concentration needed to halve the response being measured. For orientation: Cmax means the peak of the concentration-time curve. A word on the AUC: it is concentration integrated over time. Usually half-life stands for the time needed for the level to fall by half in the phase considered. For the molecule `O=C(CCOC[C@@H]1CCN1c1cn[nH]c(=O)c1C(F)(F)F)N1CCN2c3ncc(C(F)(F)F)cc3OC[C@@H]2C1`, the IC50 in [1] was 2.01 µM; in [3], 0.221 µM; in data set [4], greater than 1 µM; in data set [5], greater than 30 µM; in data set [6], greater than 30 µM; in [13], 0.0041 µM. The values for the half-inhibitory concentration (IC50) in [17] and in data set [20] were 0.00056 µM and greater than 1 µM, respectively. For the same molecule, the values for the fraction unbound at 1 h, 2 µM in data set [2], in [8] and in data set [18] were 0.006, 0.004 and 0.044, respectively. Besides, the Papp at 2 h in data set [7] is 0.852 ×10⁻⁶ cm/s. Also, the Cmax in data set [9] was 752 ng/mL. In addition, the “inhibition (INH)” value in data set [10] was “Not Active”. In addition, the values for the CLint scaled in data set [11] and in [16] were 9.1 mL/min/kg and 141 mL/min/kg, respectively. The results for the solubility kinetic in data set [12] and in data set [22] were 154 µM (≈ 86.6 µg/mL) and 158 µM (≈ 88.9 µg/mL), respectively. The molecule further showed a t1/2 in data set [14] of 222 min. This molecule displayed an AUC in data set [15] of 1146 ng·h/mL. In addition, the result in data set [19] was inactive. The same molecule showed a half-life in data set [21] of 42 min.

Values taken from ChEMBL document CHEMBL5634130, “Exploring the structural-activity relationship of hexahydropyrazino[1,2-d]pyrido[3,2-b][1,4]oxazine derivatives as potent and orally-bioavailable PARP7 inhibitors” (Eur J Med Chem, 2023).
